The target in test [1] is Cdn1 (CRISPR-associated dual-cOAs-activated ribonuclease 1) (Psychrobacter lutiphocae). In words: SEC; size-exclusion chromatography during purification (HiLoad 16/600 Superdex 200 prep grade); no cyclic oligoadenylate added.
For test [2] the target is unchanged. Put plainly: SEC-MALS; 10 mg/ml Cdn1 in 50 mM NaH2PO4/Na2HPO4, pH 7.4, 300 mM NaCl; TSKgel G3000SWXL, 0.5 ml/min, 8°C; no cyclic oligoadenylate added. (In general: In gel filtration, larger molecules generally elute earlier.)
Test [3] addresses T1, Cdn1 (Psychrobacter lutiphocae, UniProt A0ACN4YG66).
T1 construct: codon-optimized gene in pET-28a(+), E. coli BL21(DE3), Ni-NTA and SEC; homodimer (SEC-MALS); N-terminal CARF and C-terminal PD-(D/E)xK nuclease domain
T1 sequence (A0ACN4YG66 1-399): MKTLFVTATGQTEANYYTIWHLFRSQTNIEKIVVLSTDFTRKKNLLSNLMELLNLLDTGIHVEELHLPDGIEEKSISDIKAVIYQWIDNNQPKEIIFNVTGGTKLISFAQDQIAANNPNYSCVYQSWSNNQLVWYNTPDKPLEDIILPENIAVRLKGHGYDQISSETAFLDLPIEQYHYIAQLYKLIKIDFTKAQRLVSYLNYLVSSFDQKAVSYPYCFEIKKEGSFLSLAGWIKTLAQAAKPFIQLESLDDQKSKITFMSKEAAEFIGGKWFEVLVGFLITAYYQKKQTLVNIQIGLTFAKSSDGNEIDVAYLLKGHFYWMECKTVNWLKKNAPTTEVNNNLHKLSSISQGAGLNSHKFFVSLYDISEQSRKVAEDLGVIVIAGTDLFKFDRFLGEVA
In words: ITC. The format is binding.

For test [4], the target named is T1, Cdn1. Put plainly: FAM-labeled ssRNA (RNA1) cleavage, urea-PAGE. The test is classed as biochemical.

Broadly, the stoichiometry N is a count of units in the complex or per binding partner. The term Kd denotes the concentration at which binding is half-saturated. A lower Kd goes with higher affinity. As a reminder, the EC50 is the concentration at which the effect is half-maximal.

As for “Cdn1 (CRISPR-associated dual-cOAs-activated ribonuclease 1) (enzyme)”, the stoichiometry N in test [1] and in test [2] was 2 throughout.

On Cdn1 [3], `Nc1ncnc2c1ncn2[C@@H]1O[C@@H]2COP(=O)(O)O[C@H]3[C@@H](O)[C@H](n4cnc5c(N)ncnc54)O[C@@H]3COP(=O)(O)O[C@H]3[C@@H](O)[C@H](n4cnc5c(N)ncnc54)O[C@@H]3COP(=O)(O)O[C@H]3[C@@H](O)[C@H](n4cnc5c(N)ncnc54)O[C@@H]3COP(=O)(O)O[C@H]3[C@@H](O)[C@H](n4cnc5c(N)ncnc54)O[C@@H]3COP(=O)(O)O[C@H]3[C@@H](O)[C@H](n4cnc5c(N)ncnc54)O[C@@H]3COP(=O)(O)O[C@H]2[C@H]1O` [cA6] came in with a Kd of 740 ± 205 nM. The EC50 on Cdn1 [4] stood at 670 ± 98.8 nM.

For the compound `Nc1ncnc2c1ncn2[C@@H]1O[C@@H]2COP(=O)(O)O[C@H]3[C@@H](O)[C@H](n4cnc5c(N)ncnc54)O[C@@H]3COP(=O)(O)O[C@H]3[C@@H](O)[C@H](n4cnc5c(N)ncnc54)O[C@@H]3COP(=O)(O)O[C@H]2[C@H]1O` [cA3], the Kd on Cdn1 [3] is 23 ± 8.7 nM.

Consider `Nc1ncnc2c1ncn2[C@@H]1O[C@@H]2COP(=O)(O)O[C@H]3[C@@H](O)[C@H](n4cnc5c(N)ncnc54)O[C@@H]3COP(=O)(O)O[C@H]3[C@@H](O)[C@H](n4cnc5c(N)ncnc54)O[C@@H]3COP(=O)(O)O[C@H]3[C@@H](O)[C@H](n4cnc5c(N)ncnc54)O[C@@H]3COP(=O)(O)O[C@H]2[C@H]1O` [cA4], for which the Kd at Cdn1 [3] amounted to 54.6 ± 25.1 nM. The same compound showed an EC50 on Cdn1 [4] of 2.17 ± 0.68 nM.

Source of the values: paper PMC12825302, “Structural plasticity enables broad cAn binding and dual activation of CRISPR-associated ribonuclease Cdn1” (Nucleic Acids Research, 2026).
